Assay results published in patent publication US5840684A, “Glycopeptide antibiotic derivatives” (Eli Lilly and Company, priority 1995, dated 1998).
In brackets after ≈: the same amount, converted by molar mass.

What was measured:
[1] = tested on: Staphylococcus haemolyticus 415; assay: broth micro-dilution MIC; type: cell-based
Procedure: (§1) The formula I compounds have in vitro and in vivo activity against Gram-positive pathogenic bacteria. The MIC's were determined using a standard broth micro-dilution assay.

[2] = tested on: Enterococcus gallinarum 245; assay: broth micro-dilution MIC; type: cell-based; details: Enterococcus gallinarum 245
Procedure: as §1

[3] = tested on: Streptococcus pneumoniae P1; assay: broth micro-dilution MIC; type: cell-based
Procedure: as §1

[4] = tested on: Staphylococcus haemolyticus 105; assay: broth micro-dilution MIC; type: cell-based
Procedure: as §1

Entercoccus faecium 180 = assay: broth micro-dilution MIC; type: cell-based; details: Entercoccus faecium 180
Procedure: as §1

Entercoccus faecium 2041 = assay: broth micro-dilution MIC; type: cell-based; details: Entercoccus faecium 2041
Procedure: as §1

[5] = tested on: vancomycin-resistant enterococci; assay: broth micro-dilution, mean geometric MIC; type: cell-based, Enterococcus faecium and Enterococcus faecalis; details: enterococci, 24-hour incubation
[6] = tested on: Staphylococcus aureus SA1199B; type: cell-based
Procedure: (§2) The MIC's were determined using a standard broth micro-dilution assay.

[7] = tested on: Staphylococcus aureus SA1199A; assay: broth micro-dilution MIC; type: cell-based
Procedure: as §2

[8] = tested on: Staphylococcus aureus X400; assay: broth micro-dilution MIC; type: cell-based
Procedure: as §2

[9] = tested on: Staphylococcus aureus X778; assay: broth micro-dilution MIC; type: cell-based
Procedure: as §2

[10] = tested on: Staphylococcus aureus 491; assay: broth micro-dilution MIC; type: cell-based
Procedure: as §2

[11] = tested on: Streptococcus pyogenes C203; assay: broth micro-dilution MIC; type: cell-based
Procedure: as §2

Entercoccus faecium 276 = assay: broth micro-dilution MIC; type: cell-based
Procedure: as §2

[12] = tested on: Entercoccus faecium 180-1; assay: broth micro-dilution MIC; type: cell-based
Procedure: as §2

[13] = tested on: Staphylococcus aureus 446; assay: broth micro-dilution MIC; type: cell-based
Procedure: as §2

[14] = tested on: Staphylococcus aureus 489; assay: broth micro-dilution MIC; type: cell-based
Procedure: as §2

[15] = tested on: Staphylococcus aureus SA1199; assay: broth micro-dilution MIC; type: cell-based
Procedure: as §2

[16] = tested on: Staphylococcus epidermidis 270; assay: broth micro-dilution MIC; type: cell-based
Procedure: as §1

[17] = tested on: vancomycin-susceptible enterococci; assay: broth micro-dilution, mean geometric MIC; type: cell-based, Enterococcus faecium and Enterococcus faecalis; details: enterococci, 24-hour incubation
[18] = tested on: Staphylococcus aureus S13E; type: cell-based
Procedure: as §2

[19] = tested on: Staphylococcus aureus 447; assay: broth micro-dilution MIC; type: cell-based
Procedure: as §2

SMILES | MIC [1] [µg/mL] | MIC [2] [µg/mL] | MIC [3] [µg/mL] | MIC [4] [µg/mL] | MIC (Entercoccus faecium 180) [µg/mL] | MIC (Entercoccus faecium 2041) [µg/mL] | mean geometric MIC, Vancomycin Resistant Strains [5] [µg/mL] | MIC [6] [µg/mL] | MIC [7] [µg/mL] | MIC [8] [µg/mL] | MIC [10] [µg/mL] | MIC [11] [µg/mL] | MIC (Entercoccus faecium 276) [µg/mL] | MIC [12] [µg/mL] | MIC [13] [µg/mL] | MIC [14] [µg/mL] | MIC [15] [µg/mL] | MIC [16] [µg/mL] | mean geometric MIC, Vancomycin Sensitive Strains [17] [µg/mL] | MIC [19] [µg/mL] | also measured
CNC(CC(C)C)C(=O)NC1C(=O)NC(CC(N)=O)C(=O)NC2C(=O)NC3C(=O)NC(C(=O)NC(C(=O)O)c4cc(O)cc(O)c4-c4cc3ccc4O)C(OC3CC(C)(N)C(O)C(C)O3)c3ccc(cc3)Oc3cc2cc(c3OC2OC(CO)C(O)C(O)C2OC2CC(C)(NCc3ccc(-c4ccccc4)cc3)C(O)C(C)O2)Oc2ccc(cc2Cl)C1O (stereo not drawn) [Compound 182] | 4 (≈ 2.32 µM) | 1 (≈ 0.58 µM) | ≤ 0.06 | 2 (≈ 1.16 µM) | 2 (≈ 1.16 µM) | 1 (≈ 0.58 µM) | 13 | 4 (≈ 2.32 µM) | ≤ 0.06 | 1 (≈ 0.58 µM) | 1 (≈ 0.58 µM) | ≤ 0.06 | 1 (≈ 0.58 µM) | ≤ 0.06 | 2 (≈ 1.16 µM) | 2 (≈ 1.16 µM) | 2 (≈ 1.16 µM) |  |  |  | MIC [9]: 2 µg/mL (≈ 1.16 µM)
CNC(CC(C)C)C(=O)NC1C(=O)NC(CC(N)=O)C(=O)NC2C(=O)NC3C(=O)NC(C(=O)NC(C(=O)O)c4cc(O)cc(O)c4-c4cc3ccc4O)C(OC3CC(C)(N)C(O)C(C)O3)c3ccc(c(Cl)c3)Oc3cc2cc(c3OC2OC(CO)C(O)C(O)C2OC2CC(C)(NCc3ccc(-c4cccs4)cc3)C(O)C(C)O2)Oc2ccc(cc2Cl)C1O (stereo not drawn) [Compound 218] | 4 (≈ 2.27 µM) | ≤ 0.06 | ≤ 0.06 | 0.5 (≈ 0.283 µM) | ≤ 0.06 |  | 1.0 |  | ≤ 0.06 |  | 0.5 (≈ 0.283 µM) | ≤ 0.06 | ≤ 0.06 | ≤ 0.06 | 4 (≈ 2.27 µM) | 1 (≈ 0.567 µM) | 4 (≈ 2.27 µM) | 1 (≈ 0.567 µM) | 0.11 | 1 (≈ 0.567 µM) | MIC [18]: 32 µg/mL (≈ 18.1 µM); MIC [9]: 1 µg/mL (≈ 0.567 µM)
CNC(CC(C)C)C(=O)NC1C(=O)NC(CC(N)=O)C(=O)NC2C(=O)NC3C(=O)NC(C(=O)NC(C(=O)O)c4cc(O)cc(O)c4-c4cc3ccc4O)C(OC3CC(C)(N)C(O)C(C)O3)c3ccc(c(Cl)c3)Oc3cc2cc(c3OC2OC(CO)C(O)C(O)C2OC2CC(C)(NCc3ccc(OC(=O)C4CCCCC4)cc3)C(O)C(C)O2)Oc2ccc(cc2Cl)C1O (stereo not drawn) [Compound 157] | 1 (≈ 0.553 µM) | 1 (≈ 0.553 µM) | ≤ 0.06 | 1 (≈ 0.553 µM) | ≤ 0.06 | ≤ 0.06 | 2.0 | 1 (≈ 0.553 µM) | ≤ 0.06 | 0.5 (≈ 0.276 µM) | ≤ 0.06 | ≤ 0.06 | ≤ 0.06 | ≤ 0.06 | 0.5 (≈ 0.276 µM) | 0.5 (≈ 0.276 µM) | 1 (≈ 0.553 µM) |  | 0.054 |  | 
CNC(CC(C)C)C(=O)NC1C(=O)NC(CC(N)=O)C(=O)NC2C(=O)NC3C(=O)NC(C(=O)NC(C(=O)O)c4cc(O)cc(O)c4-c4cc3ccc4O)C(OC3CC(C)(N)C(O)C(C)O3)c3ccc(c(Cl)c3)Oc3cc2cc(c3OC2OC(CO)C(O)C(O)C2OC2CC(C)(NCc3ccc(-c4ccc(C(F)(F)F)cc4)cc3)C(O)C(C)O2)Oc2ccc(cc2Cl)C1O (stereo not drawn) [Compound 216] |  |  | ≤ 0.06 | 0.5 (≈ 0.274 µM) | ≤ 0.06 |  | 0.35 | 0.5 (≈ 0.274 µM) | 1 (≈ 0.547 µM) | 1 (≈ 0.547 µM) | 1 (≈ 0.547 µM) | ≤ 0.06 | 0.5 (≈ 0.274 µM) | ≤ 0.06 | 1 (≈ 0.547 µM) | 1 (≈ 0.547 µM) | ≤ 0.06 |  | 0.032 | 1 (≈ 0.547 µM) | MIC [18]: 1 µg/mL (≈ 0.547 µM)
C=CCOc1ccc(CNC2(C)CC(OC3C(Oc4c5cc6cc4Oc4ccc(cc4Cl)C(OC4CC(C)(N)C(O)C(C)O4)C4NC(=O)C(NC(=O)C6NC(=O)C(CC(N)=O)NC(=O)C(NC(=O)C(CC(C)C)NC)C(O)c6ccc(c(Cl)c6)O5)c5ccc(O)c(c5)-c5c(O)cc(O)cc5C(C(=O)O)NC4=O)OC(CO)C(O)C3O)OC(C)C2O)cc1 (stereo not drawn) [Compound 7] |  | 0.5 (≈ 0.288 µM) | ≤ 0.06 | 8 (≈ 4.6 µM) | 2 (≈ 1.15 µM) |  | 2.8 | 1 (≈ 0.575 µM) | ≤ 0.06 | 1 (≈ 0.575 µM) | 2 (≈ 1.15 µM) | ≤ 0.06 | 1 (≈ 0.575 µM) | ≤ 0.06 | 8 (≈ 4.6 µM) | 2 (≈ 1.15 µM) | 4 (≈ 2.3 µM) | 4 (≈ 2.3 µM) | 0.43 | 4 (≈ 2.3 µM) | MIC [18]: 2 µg/mL (≈ 1.15 µM)
CNC(CC(C)C)C(=O)NC1C(=O)NC(CC(N)=O)C(=O)NC2C(=O)NC3C(=O)NC(C(=O)NC(C(=O)O)c4cc(O)cc(O)c4-c4cc3ccc4O)C(OC3CC(C)(N)C(O)C(C)O3)c3ccc(c(Cl)c3)Oc3cc2cc(c3OC2OC(CO)C(O)C(O)C2OC2CC(C)(NCc3ccncc3)C(O)C(C)O2)Oc2ccc(cc2Cl)C1O (stereo not drawn) [Compound 26] | 8 (≈ 4.75 µM) | 0.125 (≈ 0.0742 µM) | ≤ 0.06 | 4 (≈ 2.38 µM) | 4 (≈ 2.38 µM) |  | 54 | 0.5 (≈ 0.297 µM) | ≤ 0.06 |  | 0.5 (≈ 0.297 µM) | ≤ 0.06 | ≤ 0.06 |  |  | ≤ 0.06 | 1 (≈ 0.594 µM) | 1 (≈ 0.594 µM) |  | 2 (≈ 1.19 µM) | MIC [9]: 0.125 µg/mL (≈ 0.0742 µM)
CNC(CC(C)C)C(=O)NC1C(=O)NC(CC(N)=O)C(=O)NC2C(=O)NC3C(=O)NC(C(=O)NC(C(=O)O)c4cc(O)cc(O)c4-c4cc3ccc4O)C(OC3CC(C)(N)C(O)C(C)O3)c3ccc(c(Cl)c3)Oc3cc2cc(c3OC2OC(CO)C(O)C(O)C2OC2CC(C)(NCc3ccc(-c4ccccc4)s3)C(O)C(C)O2)Oc2ccc(cc2Cl)C1O (stereo not drawn) [Compound 67] | 2 (≈ 1.13 µM) | 2 (≈ 1.13 µM) | ≤ 0.06 |  |  | ≤ 0.06 | 1.7 | 1 (≈ 0.567 µM) | ≤ 0.06 | 1 (≈ 0.567 µM) | 1 (≈ 0.567 µM) |  | ≤ 0.06 | ≤ 0.06 |  | ≤ 0.06 | 1 (≈ 0.567 µM) | 0.5 (≈ 0.283 µM) | 0.16 | 1 (≈ 0.567 µM) | 
